Assay results reported in ChEMBL document CHEMBL1201862, “PubChem BioAssay data set” (2004).
Active and inactive are the calls of the source.

Tests used:
Type in all cases: functional
[1] = molecular target: Death-associated protein kinase 3 (Homo sapiens, UniProt O43293);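 also: measured as one member of a kinome-wide profiling panel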
[2] = molecular target: Mitogen-activated protein kinase 8 (Homo sapiens, UniProt P45983);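 also: value comes from one member of a kinome-wide kinase profiling panel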
[3] = molecular target: T1, Serine/threonine-protein kinase TAO1 (Homo sapiens, UniProt Q7L7X3)
T1 sequence (Q7L7X3 whole entry): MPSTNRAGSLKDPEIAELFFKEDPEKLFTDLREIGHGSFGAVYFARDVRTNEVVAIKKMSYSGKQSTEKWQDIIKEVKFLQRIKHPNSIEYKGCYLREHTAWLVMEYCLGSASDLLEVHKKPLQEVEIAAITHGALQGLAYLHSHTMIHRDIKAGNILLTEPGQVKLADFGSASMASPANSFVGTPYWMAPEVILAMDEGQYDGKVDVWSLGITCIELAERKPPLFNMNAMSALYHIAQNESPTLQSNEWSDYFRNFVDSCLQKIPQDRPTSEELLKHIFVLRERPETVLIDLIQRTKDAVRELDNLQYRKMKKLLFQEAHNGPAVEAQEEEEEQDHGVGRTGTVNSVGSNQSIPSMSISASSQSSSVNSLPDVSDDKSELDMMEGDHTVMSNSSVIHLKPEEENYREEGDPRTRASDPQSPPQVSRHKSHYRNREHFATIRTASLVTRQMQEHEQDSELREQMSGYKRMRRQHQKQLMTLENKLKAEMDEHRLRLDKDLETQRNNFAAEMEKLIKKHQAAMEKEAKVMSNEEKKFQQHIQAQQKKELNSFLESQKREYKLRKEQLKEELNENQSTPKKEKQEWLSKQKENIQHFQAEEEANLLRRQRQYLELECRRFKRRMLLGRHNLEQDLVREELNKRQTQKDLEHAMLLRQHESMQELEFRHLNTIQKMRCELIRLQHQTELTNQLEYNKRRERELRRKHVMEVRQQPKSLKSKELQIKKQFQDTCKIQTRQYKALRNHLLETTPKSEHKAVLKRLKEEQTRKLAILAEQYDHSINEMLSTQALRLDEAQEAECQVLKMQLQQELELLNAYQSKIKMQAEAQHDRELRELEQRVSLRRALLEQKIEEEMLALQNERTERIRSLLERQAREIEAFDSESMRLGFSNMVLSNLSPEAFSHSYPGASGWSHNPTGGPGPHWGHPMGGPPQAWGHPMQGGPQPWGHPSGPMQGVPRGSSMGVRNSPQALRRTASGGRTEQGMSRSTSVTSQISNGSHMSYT

[4] = molecular target: T2, Serine/threonine-protein kinase Chk1 (Homo sapiens, UniProt O14757);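 also: measured as one member of a kinome-wide kinase profiling panel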
T2 sequence (O14757 whole entry): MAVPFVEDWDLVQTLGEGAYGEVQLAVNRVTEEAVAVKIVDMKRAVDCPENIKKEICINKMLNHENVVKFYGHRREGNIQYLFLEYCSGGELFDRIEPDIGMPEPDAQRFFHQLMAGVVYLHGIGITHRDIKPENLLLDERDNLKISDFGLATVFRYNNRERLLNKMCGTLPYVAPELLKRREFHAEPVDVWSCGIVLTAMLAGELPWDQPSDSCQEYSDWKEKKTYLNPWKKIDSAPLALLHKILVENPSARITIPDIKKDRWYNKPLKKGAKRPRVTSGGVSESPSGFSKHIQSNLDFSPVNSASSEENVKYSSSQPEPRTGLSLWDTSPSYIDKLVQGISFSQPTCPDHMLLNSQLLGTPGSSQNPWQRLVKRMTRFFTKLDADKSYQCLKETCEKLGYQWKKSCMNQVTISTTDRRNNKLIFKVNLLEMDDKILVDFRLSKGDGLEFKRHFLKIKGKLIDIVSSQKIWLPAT

[5] = molecular target: Leukocyte tyrosine kinase receptor (Homo sapiens, UniProt P29376); assay: Navigating the Kinome. Panel member name: LTK
[6] = molecular target: Serine/threonine-protein kinase pim-1 (Homo sapiens, UniProt P11309)
[7] = molecular target: Glycogen synthase kinase-3 alpha (Homo sapiens, UniProt P49840);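 also: GSK3A result taken from a broad kinome-wide kinase panel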
[8] = molecular target: Cyclin-dependent kinase 8 (Homo sapiens, UniProt P49336); assay: Navigating the Kinome. Panel member name: CDK8
Aurora kinase B = Aurora kinase B (Homo sapiens, UniProt Q96GD4)
[9] = molecular target: Platelet-derived growth factor receptor alpha (Homo sapiens, UniProt P16234); assay: Navigating the Kinome. Panel member name: PDGFRA
[10] = molecular target: Mitogen-activated protein kinase kinase kinase kinase 4 (Homo sapiens, UniProt O95819)
[11] = molecular target: Dual specificity protein kinase CLK2 (Homo sapiens, UniProt P49760)
[12] = molecular target: Vascular endothelial growth factor receptor 2 (Homo sapiens, UniProt P35968)
[13] = molecular target: T3, Mitogen-activated protein kinase kinase kinase kinase 2 (Homo sapiens, UniProt Q12851);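 also: measured as one member of a kinome-wide kinase panel, with MAP4K2 as the panel entry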
T3 sequence (Q12851 whole entry): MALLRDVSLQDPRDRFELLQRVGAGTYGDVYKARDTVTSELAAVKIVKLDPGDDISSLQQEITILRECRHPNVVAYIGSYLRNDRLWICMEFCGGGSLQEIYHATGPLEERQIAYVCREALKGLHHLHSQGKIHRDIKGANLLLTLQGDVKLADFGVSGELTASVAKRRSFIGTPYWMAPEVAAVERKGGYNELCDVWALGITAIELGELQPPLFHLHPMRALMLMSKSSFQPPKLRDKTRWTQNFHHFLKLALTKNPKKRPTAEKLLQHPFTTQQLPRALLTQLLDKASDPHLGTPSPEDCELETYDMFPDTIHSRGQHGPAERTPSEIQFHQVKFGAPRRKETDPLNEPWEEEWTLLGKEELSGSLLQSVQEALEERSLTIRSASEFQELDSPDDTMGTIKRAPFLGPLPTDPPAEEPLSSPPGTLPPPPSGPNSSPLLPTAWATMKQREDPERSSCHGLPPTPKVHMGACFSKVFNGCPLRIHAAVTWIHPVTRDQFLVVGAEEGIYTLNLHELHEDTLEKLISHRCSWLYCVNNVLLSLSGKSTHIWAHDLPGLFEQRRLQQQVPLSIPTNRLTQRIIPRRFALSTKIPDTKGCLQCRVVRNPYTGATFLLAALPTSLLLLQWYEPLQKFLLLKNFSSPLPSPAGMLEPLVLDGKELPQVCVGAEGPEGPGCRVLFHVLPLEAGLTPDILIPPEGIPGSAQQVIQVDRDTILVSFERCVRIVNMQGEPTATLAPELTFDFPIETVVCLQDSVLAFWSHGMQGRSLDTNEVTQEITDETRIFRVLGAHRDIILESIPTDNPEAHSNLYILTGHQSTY

[14] = molecular target: Vascular endothelial growth factor receptor 1 (Homo sapiens, UniProt P17948);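 also: measured within a kinome-wide profiling panel, FLT1 as the panel member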
Sequence of Vascular endothelial growth factor receptor 1 (P17948 whole entry): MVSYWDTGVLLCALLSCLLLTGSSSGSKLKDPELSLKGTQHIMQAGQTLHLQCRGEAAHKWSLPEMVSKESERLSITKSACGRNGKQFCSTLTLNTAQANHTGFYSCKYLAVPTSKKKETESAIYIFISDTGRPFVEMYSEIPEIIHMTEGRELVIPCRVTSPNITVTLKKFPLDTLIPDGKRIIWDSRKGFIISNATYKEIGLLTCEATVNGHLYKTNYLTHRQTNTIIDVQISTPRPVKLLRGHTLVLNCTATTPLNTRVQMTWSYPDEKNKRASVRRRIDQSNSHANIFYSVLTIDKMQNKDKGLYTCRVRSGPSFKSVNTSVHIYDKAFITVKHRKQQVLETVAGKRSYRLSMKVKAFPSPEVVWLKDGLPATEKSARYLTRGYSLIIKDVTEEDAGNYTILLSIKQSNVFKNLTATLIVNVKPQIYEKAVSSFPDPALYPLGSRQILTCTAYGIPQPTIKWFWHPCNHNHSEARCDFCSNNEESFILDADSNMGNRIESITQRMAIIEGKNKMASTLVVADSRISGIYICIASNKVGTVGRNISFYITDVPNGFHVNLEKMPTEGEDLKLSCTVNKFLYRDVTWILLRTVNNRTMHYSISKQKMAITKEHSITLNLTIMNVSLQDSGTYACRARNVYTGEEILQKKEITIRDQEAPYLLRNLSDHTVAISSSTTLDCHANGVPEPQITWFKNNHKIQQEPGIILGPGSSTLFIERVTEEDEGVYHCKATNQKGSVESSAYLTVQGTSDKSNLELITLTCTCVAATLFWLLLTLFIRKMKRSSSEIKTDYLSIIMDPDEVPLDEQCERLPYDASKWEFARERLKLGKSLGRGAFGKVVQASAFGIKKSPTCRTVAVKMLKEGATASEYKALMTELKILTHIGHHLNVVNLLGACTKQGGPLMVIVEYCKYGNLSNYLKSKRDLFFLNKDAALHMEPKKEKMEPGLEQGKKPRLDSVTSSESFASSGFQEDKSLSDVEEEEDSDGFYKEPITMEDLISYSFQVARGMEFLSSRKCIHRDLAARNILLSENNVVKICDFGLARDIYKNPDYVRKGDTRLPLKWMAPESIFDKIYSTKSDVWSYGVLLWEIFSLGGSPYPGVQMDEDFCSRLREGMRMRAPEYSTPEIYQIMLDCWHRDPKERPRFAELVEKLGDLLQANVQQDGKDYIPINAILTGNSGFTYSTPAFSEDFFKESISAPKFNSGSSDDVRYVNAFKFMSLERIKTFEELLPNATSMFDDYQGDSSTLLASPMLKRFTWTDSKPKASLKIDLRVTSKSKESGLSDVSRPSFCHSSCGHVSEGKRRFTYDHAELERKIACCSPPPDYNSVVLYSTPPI

Sequence of Dual specificity protein kinase CLK2 (P49760 whole entry): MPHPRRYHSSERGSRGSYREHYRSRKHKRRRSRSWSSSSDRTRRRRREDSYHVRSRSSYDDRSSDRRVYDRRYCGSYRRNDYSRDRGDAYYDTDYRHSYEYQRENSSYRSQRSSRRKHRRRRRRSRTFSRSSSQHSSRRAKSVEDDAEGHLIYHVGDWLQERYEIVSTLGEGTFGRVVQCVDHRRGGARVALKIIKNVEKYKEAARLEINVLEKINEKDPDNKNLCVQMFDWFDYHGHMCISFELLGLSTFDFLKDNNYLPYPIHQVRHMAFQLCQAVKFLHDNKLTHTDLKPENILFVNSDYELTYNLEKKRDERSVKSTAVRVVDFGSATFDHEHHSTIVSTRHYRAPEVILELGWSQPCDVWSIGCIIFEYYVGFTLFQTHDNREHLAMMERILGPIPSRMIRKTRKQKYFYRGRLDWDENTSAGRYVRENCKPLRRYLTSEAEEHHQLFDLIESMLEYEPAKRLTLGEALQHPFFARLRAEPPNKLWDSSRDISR
Sequence of Cyclin-dependent kinase 8 (P49336 whole entry): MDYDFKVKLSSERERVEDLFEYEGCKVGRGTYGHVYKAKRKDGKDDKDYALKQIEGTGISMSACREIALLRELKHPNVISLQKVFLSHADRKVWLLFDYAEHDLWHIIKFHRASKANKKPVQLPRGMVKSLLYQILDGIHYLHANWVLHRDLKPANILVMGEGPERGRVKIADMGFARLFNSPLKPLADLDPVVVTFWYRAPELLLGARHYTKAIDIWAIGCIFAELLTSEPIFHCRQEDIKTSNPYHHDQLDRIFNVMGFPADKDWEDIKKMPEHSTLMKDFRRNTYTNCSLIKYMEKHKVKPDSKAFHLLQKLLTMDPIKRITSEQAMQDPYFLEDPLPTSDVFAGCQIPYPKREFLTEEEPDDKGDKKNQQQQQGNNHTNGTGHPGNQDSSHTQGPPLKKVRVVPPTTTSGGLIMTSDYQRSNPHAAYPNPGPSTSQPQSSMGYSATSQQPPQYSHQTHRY
Sequence of Mitogen-activated protein kinase kinase kinase kinase 4 (O95819 whole entry): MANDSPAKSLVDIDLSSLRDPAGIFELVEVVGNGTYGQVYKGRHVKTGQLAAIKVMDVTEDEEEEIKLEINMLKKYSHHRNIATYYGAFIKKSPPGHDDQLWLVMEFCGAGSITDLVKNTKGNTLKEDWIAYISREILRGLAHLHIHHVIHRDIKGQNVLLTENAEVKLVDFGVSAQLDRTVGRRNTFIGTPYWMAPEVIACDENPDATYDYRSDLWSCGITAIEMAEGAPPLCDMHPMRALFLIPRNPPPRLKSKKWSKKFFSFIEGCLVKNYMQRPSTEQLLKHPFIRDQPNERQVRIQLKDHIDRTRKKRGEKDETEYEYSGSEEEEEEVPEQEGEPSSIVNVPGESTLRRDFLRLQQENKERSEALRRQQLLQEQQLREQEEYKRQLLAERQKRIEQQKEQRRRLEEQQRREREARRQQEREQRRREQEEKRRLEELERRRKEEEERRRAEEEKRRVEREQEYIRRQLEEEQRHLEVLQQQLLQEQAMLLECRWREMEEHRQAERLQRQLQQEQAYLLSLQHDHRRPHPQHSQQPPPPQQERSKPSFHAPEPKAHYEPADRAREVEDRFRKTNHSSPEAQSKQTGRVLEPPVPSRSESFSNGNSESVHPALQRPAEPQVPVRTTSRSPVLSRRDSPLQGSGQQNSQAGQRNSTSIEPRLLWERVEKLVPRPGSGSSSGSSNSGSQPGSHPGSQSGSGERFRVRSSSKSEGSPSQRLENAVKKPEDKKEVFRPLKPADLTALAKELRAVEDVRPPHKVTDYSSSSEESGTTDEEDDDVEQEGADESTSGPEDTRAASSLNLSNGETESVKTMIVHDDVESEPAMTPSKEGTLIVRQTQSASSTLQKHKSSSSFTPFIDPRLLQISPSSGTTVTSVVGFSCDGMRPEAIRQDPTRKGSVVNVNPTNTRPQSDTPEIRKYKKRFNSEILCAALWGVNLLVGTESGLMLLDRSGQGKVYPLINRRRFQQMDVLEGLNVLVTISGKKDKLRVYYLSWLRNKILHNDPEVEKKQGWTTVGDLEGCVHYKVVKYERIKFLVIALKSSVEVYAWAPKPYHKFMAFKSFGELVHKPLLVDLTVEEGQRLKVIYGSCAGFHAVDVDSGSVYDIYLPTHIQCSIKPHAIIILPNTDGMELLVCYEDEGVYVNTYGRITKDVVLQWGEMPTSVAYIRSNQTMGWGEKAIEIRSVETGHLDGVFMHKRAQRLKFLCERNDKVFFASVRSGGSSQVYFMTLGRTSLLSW
Sequence of Vascular endothelial growth factor receptor 2 (P35968 whole entry): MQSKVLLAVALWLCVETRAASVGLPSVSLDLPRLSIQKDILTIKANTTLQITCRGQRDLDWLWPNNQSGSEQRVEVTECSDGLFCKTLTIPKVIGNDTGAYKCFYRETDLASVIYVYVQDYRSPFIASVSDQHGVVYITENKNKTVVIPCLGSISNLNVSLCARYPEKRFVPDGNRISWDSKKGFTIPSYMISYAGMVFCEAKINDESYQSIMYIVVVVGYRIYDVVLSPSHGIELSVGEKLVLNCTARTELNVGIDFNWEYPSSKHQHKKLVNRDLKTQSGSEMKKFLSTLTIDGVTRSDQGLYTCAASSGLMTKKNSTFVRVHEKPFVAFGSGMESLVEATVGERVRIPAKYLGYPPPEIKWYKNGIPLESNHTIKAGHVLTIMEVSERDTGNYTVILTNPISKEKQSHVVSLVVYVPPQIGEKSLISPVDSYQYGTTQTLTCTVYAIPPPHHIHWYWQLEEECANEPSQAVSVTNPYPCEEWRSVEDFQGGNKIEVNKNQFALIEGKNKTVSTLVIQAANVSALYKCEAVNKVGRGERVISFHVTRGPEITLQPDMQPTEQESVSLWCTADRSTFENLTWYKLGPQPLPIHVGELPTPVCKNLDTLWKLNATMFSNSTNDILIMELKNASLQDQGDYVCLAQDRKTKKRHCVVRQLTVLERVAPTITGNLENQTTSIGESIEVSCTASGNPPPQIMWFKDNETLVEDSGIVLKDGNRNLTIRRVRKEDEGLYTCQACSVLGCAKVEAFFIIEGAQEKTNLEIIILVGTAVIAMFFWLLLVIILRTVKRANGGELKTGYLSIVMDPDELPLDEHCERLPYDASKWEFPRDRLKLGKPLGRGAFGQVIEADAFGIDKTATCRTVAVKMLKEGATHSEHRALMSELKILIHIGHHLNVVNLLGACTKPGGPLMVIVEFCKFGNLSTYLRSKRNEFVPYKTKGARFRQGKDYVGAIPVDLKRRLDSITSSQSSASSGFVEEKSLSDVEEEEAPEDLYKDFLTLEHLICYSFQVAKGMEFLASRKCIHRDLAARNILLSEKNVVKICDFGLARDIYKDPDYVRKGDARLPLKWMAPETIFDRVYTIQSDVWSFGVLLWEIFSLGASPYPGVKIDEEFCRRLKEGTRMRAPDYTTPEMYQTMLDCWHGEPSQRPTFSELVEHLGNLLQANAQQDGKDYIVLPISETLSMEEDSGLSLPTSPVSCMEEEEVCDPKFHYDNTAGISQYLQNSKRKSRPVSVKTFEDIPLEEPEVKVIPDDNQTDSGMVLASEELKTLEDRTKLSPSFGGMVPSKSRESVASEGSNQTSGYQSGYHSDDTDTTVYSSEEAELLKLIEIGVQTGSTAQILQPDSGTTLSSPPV

| SMILES | Ki [1] | Ki [2] | Ki [3] | Ki [4] | Ki [5] | Ki [6] | Ki [7] | Ki [8] | Ki (Aurora kinase B) | Ki [9] | Ki [10] | Ki [11] | Ki [12] | Ki [13] | Ki [14] |
| --- | --- | --- | --- | --- | --- | --- | --- | --- | --- | --- | --- | --- | --- | --- | --- |
| OCc1cc(-c2ccc3[nH]ncc3c2)on1 | 3.98 µM (active) | 12.6 µM (active) | 79.4 µM (active) | 39.8 µM (active) | 20 µM (active) | 15.8 µM (active) | 2.51 µM (active) | 6.31 µM (active) | 20 µM (active) | 39.8 µM (active) | 20 µM (active) | 1 µM (active) | 7.94 µM (active) | 39.8 µM (active) | 25.1 µM (active) |
| CC(C)(O)c1cn(-c2ccc3[nH]ncc3c2)nn1 | 2 µM (active) | 20 µM (active) | 79.4 µM (active) | 63.1 µM (active) | 15.8 µM (active) | 50.1 µM (active) | 12.6 µM (active) | 15.8 µM (active) | 31.6 µM (active) | 63.1 µM (active) | 39.8 µM (active) | 6.31 µM (active) | 39.8 µM (active) | 50.1 µM (active) | 79.4 µM (active) |
| NC1CCC(Nc2nccc(-c3c[nH]c4ncccc34)n2)CC1 (configuration not stated) | 0.158 µM (active) | 0.1 µM (active) | 0.316 µM (active) | 2 µM (active) | – | 0.251 µM (active) | 0.158 µM (active) | – | 2 µM (active) | – | 0.0631 µM (active) | 0.00501 µM (active) | > 7.94 µM (inactive) | 0.0501 µM (active) | > 0.398 µM (inactive) |
| COC(C(=O)N1Cc2[nH]nc(NC(=O)c3ccc(N4CCN(C)CC4)cc3)c2C1)c1ccccc1 (configuration not stated) | 0.794 µM (active) | – | – | – | 0.0316 µM (active) | – | – | > 3.98 µM (inactive) | – | > 2 µM (inactive) | – | – | – | – | 0.0398 µM (active) |
